In patent US11278561B2, “Combination treatment for hematological cancers” (Geron Corporation, priority 2016, dated 2022):

Columns and labels:
[1] = test system: CD45+ leukocytes from AML patient PBMCs; test: ex vivo viability of AML patient PBMCs, CD45+ leukocytes; type: cell-based, human; conditions: 16-hour and 40-hour exposure; imetelstat sodium 25, 50 μM and/or venetoclax 20, 100 nM; mean of four patients
Experimental: AML cell lines (see Example 1) and AML patient peripheral blood mononuclear cell (“PBMC”) samples, which were obtained from AML patient whole blood after Ficoll purification, were treated with imetelstat sodium or venetoclax alone, or in combination, and viable and apoptotic populations of cells were evaluated by flow cytometry. Telomerase activity, hTERT expression and mitochondrial dysfunction were investigated for mechanism of action. […] Apoptosis was measured via flow cytometry staining for Annexin V and propidium iodide. Unstained (i.e. double negative) cells constitute viable cells remaining after treatment.
Specifically, whole blood from AML patients (n=4) was purified using Ficoll-Paque Plus (GE Healthcare catalog #17-1440-03) to purify PBMCs. […]
After 16- and 40-hours of treatment, cells were measured for healthy, early apoptotic and apoptotic populations with an Annexin V (interior cell membrane stain) plus propidium iodide (PI, DNA binding dye) flow cytometry assay kit (BioLegend catalog #640914) as described in the Example 1. […] Means and standard deviations were determined for the four patients for CD45^+ (leukocytes) and CD45^+/CD34^+ (leukemic stem cells) populations.

[2] = test system: MOLM-13 cells; test: Annexin V / Propidium Iodide flow cytometry apoptosis assay in MOLM-13; type: cell-based; set-up: key to Excess over HSA / Excess over BLISS: excess = combination minus HSA/Bliss expected, in % apoptotic cells; conditions: for Excess over BLISS / Excess over HSA: imetelstat sodium μM: r7 50, r8 25, r9 10, r10 0
Experimental: AML tumor cells KG-1 (ATCC #CCL-246) and MOLM-13 (DSMZ #ACC554) were plated at a density of ˜20,000 cells per well on 96-well polystyrene U-bottom tissue culture plates (Corning catalog #353777) in RPMI-1640 (ThermoFisher catalog #11875-085) supplemented with 10% fetal bovine serum (ThermoFisher catalog #16140-089) and 1% penicillin/streptomycin antibiotic cocktail (ThermoFisher catalog 15140-122) and grown in a 37° C. incubator under humidified 5% CO2 atmosphere.
At 48 and 96 hours, cells were measured for healthy, early apoptotic and apoptotic populations with an Annexin V (interior cell membrane stain) plus Propidium Iodide (PI, DNA binding dye) flow cytometry assay kit (BioLegend catalog 640914). Annexin V detects the externalization of phosphatidylserine in apoptotic cells using recombinant annexin V conjugated to green-fluorescent FITC dye and dead cells using Propidium iodide (PI). Propidium iodide stains necrotic cells with red fluorescence. After treatment with both probes, early apoptotic cells show green fluorescence, apoptotic (dead) cells show red and green fluorescence, and live cells show little or no fluorescence. […] Cells were stained for 30 minutes at 4° C. in the dark, followed by 3× washes with PBS and suspension in FACs Stain Buffer (BD catalog 554657) prior to interrogation on a BD FACs Canto flow cytometer for forward scatter, side scatter, FITC, and PE channels. […] The percentage of apoptotic cells (double labeled) was used to calculate combination effects using both the Highest Single Agent (HSA) and Bliss additivity models (J Tang et al. Frontiers in Pharmacology. 2015; 6 (181)).
Using the HSA model, the cytotoxic effect of the combined condition (“C”) was compared to the effect generated by each of the single agent controls (“A” or “B”) for the respective dose in the combination: Excess over HSA=C−A (if A>B) or C−B (if A<B)
The Bliss model performs a similar comparison, but instead of the highest effect of single agent, the Bliss model subtracts from the combination a value equal to the sum of each single agent minus their product: Excess over Bliss=C−[(A+B)−(A*B)]
Treated cells were analyzed by Flow cytometry for Annexin V and Propidium Iodide staining as described previously. Events gated in the apoptotic population (Annexin V+/Propidium Iodide+) were used to determine synergy scores for the combination matrix. Combination data analysis was generated by the Horizon Chalice™ Analyzer Software (Horizon Discovery Group, Cambridge, UK). […] Mismatch and non-complimentary controls were not utilized in this experiment.
Combination conditions undergo isobolar analysis to generate a combination index and graphically represent the behavior of a combination with synergistic pairs falling below the isobologram and antagonistic falling above it (additive combinations would be expected to fall on the line). The Horizon Chalice™ Analyzer Software additionally provides a synergy score, with values greater than 1 indicating synergy.

[3] = test system: hTERT; test: hTERT transcription levels by RT-qPCR in KG-1; type: cell-based, human; conditions: 20 nM ABT-199, at either time point (48 or 96 hours)
Experimental: Samples from cell experiments (and single agent controls) were collected for molecular analyses to assess combination effects contributing to potential mechanisms of action. […] Nucleic acids were purified by first lysing cells with 350 μL of RLT Buffer (Qiagen catalog #1030963) supplemented with 2-mercaptoethanol (Sigma catalog #63689-100ML-F). RNA was purified with the AllPrep RNA/DNA Mini Kit (Qiagen catalog #80204) and reverse transcribed to cDNA using a High Capacity cDNA kit (ThermoFisher catalog #4368814) and pre-amplified prior to analysis with TaqMan PreAmp Master Mix (ThermoFisher catalog #4384557B). Products were analyzed using an in-house developed Taq-Man RT-qPCR assay to measure hTERT transcription levels (TaqMan Universal PCR Master Mix—ThermoFisher catalog #4304437; primer and probe sequences below) using a ViiA7 Real-Time PCR system from ThermoFisher: […]

[4] = MOLM-13, 48 hours, ABT-199 1 nM
[5] = MOLM-13, 48 hours, ABT-199 5 nM
[6] = MOLM-13, 48 hours, ABT-199 20 nM
[7] = MOLM-13, 48 hours, ABT-199 100 nM
[8] = MOLM-13, 48 hours, ABT-199 500 nM
[9] = MOLM-13, 96 hours, ABT-199 1 nM
[10] = MOLM-13, 96 hours, ABT-199 5 nM
[11] = MOLM-13, 96 hours, ABT-199 20 nM
[12] = MOLM-13, 96 hours, ABT-199 100 nM
[13] = MOLM-13, 96 hours, ABT-199 500 nM

Q: Which results are given for `CC1(C)CCC(CN2CCN(c3ccc(C(=O)NS(=O)(=O)c4ccc(NCC5CCOCC5)c([N+](=O)[O-])c4)c(Oc4cnc5[nH]ccc5c4)c3)CC2)=C(c2ccc(Cl)cc2)C1` [ABT-199, 4-[4-[[2-(4-chlorophenyl)-4,4-dimethylcyclohexen-1-yl]methyl]piperazin-1-yl]-N-[3-nitro-4-(oxan-4-ylmethylamino)phenyl]sulfonyl-2-(1H-pyrrolo [2,3-b]pyridin-5-yloxy)benzamide]?
A: viability of CD45+ leukocytes derived from AML patients [1]: only moderately impacted; Excess over BLISS [2, 4]: 0; Excess over HSA [2, 4]: 0; Excess over BLISS [2, 5]: 0; Excess over HSA [2, 5]: 0; Excess over BLISS [2, 6]: 0; Excess over HSA [2, 6]: 0; % apoptotic cells (double label) [2, 7]: ~19%; Excess over BLISS [2, 7]: 0; Excess over HSA [2, 7]: 0; % apoptotic cells (double label) [2, 8]: ~30%; Excess over BLISS [2, 8]: 0; Excess over HSA [2, 8]: 0; Excess over BLISS [2, 9]: 0; Excess over HSA [2, 9]: 0; Excess over BLISS [2, 10]: 0; Excess over HSA [2, 10]: 0; Excess over BLISS [2, 11]: 0; Excess over HSA [2, 11]: 0; Excess over BLISS [2, 12]: 0; Excess over HSA [2, 12]: 0; Excess over BLISS [2, 13]: 0; Excess over HSA [2, 13]: 0; cell death ([2]; MOLM-13, 96 hours, ABT-199 at 5, 20, 100 and 500 nM): > 30%; apoptotic activity ([2]; MOLM-13, after 48 hours, concentrations not given): 30%; hTERT RNA expression level, percentage of untreated controls [3]: 90-95%
